Values of other authors, collected in publication PMC7709506 (ESMO Open, 2020).

Conditions: patients, phase I/II trial; cited from earlier work

In the case of CNC(=O)c1cccc2cc(Oc3ccnc4cc(OCC5(N)CC5)c(OC)cc34)ccc12 [lucitanib], the Hypertension is given as 91% and the “grade 3 hypertension events” value is given as 57%.
